Here are results for 19 compounds from US4345984A, “Novel prostaglandin analogues and process for making same” (The Procter & Gamble Company, priority 1981, dated 1982).

The test system of the assay is stomach mucosa. Briefly: cytoprotective activity in rats (ethanol-induced stomach mucosa lesions). It counts as in vivo, Sprague-Dawley rats. The settings on record: for response vs control in vivo at 5 mg/kg / inhibition in vivo at 5 mg/kg: Rattus norvegicus, 1 h; for response vs control in vivo at 5 mg/kg / inhibition in vivo at 5 mg/kg / % Protection: 5 mg per kg oral, half hour before absolute ethanol 10 ml per kg oral; for response vs control in vivo at 5 mg/kg: average lesion length as % of control animals; for inhibition in vivo at 5 mg/kg: lesions vs control, read-out: LESIONS % reduction; for % Protection: optically pure compounds of Example XIX; for cytoprotective activity (in words): comparison of enantiomers and racemate, Table III. How it is done: A number of the 7-oxa prostanoic acid derivatives has been tested for cytoprotective activity in rats. In this test, Sprague-Dawley rats are fasted for 24 hours prior to the pretreatment. The pretreatment is oral administration of a 5 mg per kg body weight dose of the prostanoid in 2.5 ml of a vehicle consisting of Tween 80 (0.75%) and the balance water. The control animals are given 2.5 ml of the vehicle, without prostanoid. A half hour after the pretreatment, absolute ethanol is administered orally to the animals, in a dose of 10 ml per kg body weight. One hour later the animals are sacrificed, their stomachs dissected out, opened along the greater curvature and the mucose examined for lesions. The average lesion length is expressed as percentage of the average lesion length found in the stomach mucosa of control animals.
Importantly, this test measures the active cytoprotective properties of the prostanoids, independent of the gastric secretion inhibition that these compounds may or may not show. The test is discussed more fully by Robert et al., Gastroenterology 77 (1979) 433, incorporated herein by reference.
methyl-7-oxa-9-oxo-Prostanoate derivatives were tested for cytoprotective properties. The compounds differed with respect to the nature of the C13 -C14 bond (triple, cis or trans double, or single), the substituent(s) at the 15-position and at the 16-position. […]
The optically pure compounds of Example XIX were tested for cytoprotective activity. The following results were obtained (Table III).

[1] abbreviates: methyl-7-oxa-9-alpha-hydroxy prost-13,14-ynoate derivatives.
[2] abbreviates: 7-oxa-9-oxo-methyl prostanoate derivatives.

Where two headings read alike, the source gives them in different places.

With `CCCCCC(=O)C#C[C@H]1CC[C@H](O)[C@@H]1OCCCCCC(=O)O` (relative stereo), under setting [1], the response vs control in vivo at 5 mg/kg is 7% and the inhibition in vivo at 5 mg/kg was 93%.

With `CCCCC[C@@H](O)C#CC1CCC(=O)C1OCCCCCC(=O)OC` (stereo partly drawn) [(19), methyl-(R)-15-hydroxy-7-oxa-9-oxo-prost-13,14-ynoate], the “% Protection” value is -34%.

As for `CCCCCCC#C[C@H]1CC[C@H](O)[C@@H]1OCCCCCC(=O)OC` (relative stereo) [triple H,H H,H (7-oxa-9-alpha-hydroxy)], under setting [1], the response vs control in vivo at 5 mg/kg came to 90% and the inhibition in vivo at 5 mg/kg is 10%.

With `CCCCCC(O)C#C[C@H]1CC[C@H](O)[C@@H]1OCCCCCC(=O)OC` (relative stereo) [methyl-9-alpha-hydroxy-15-hydroxy-7-oxa-Prost-13,14-ynoate], under setting [1], the response vs control in vivo at 5 mg/kg turned out to be 93% and the inhibition in vivo at 5 mg/kg was 7%.

As for `CCCCCC(=O)/C=C/[C@H]1CCC(=O)[C@@H]1OCCCCCC(=O)OC` (relative stereo) [trans oxo H,H (7-oxa-9-oxo)], under setting [2], the response vs control in vivo at 5 mg/kg came out at 118% and the inhibition in vivo at 5 mg/kg is -18%.

For the compound `CCCCCCC#C[C@H]1CCC(=O)[C@@H]1OCCCCCC(=O)OC` (relative stereo) [triple H,H H,H (7-oxa-9-oxo)], under setting [2], the response vs control in vivo at 5 mg/kg is 81% and the inhibition in vivo at 5 mg/kg worked out at 19%.

Take `CCCCCC(C)(O)C#C[C@H]1CCC(=O)[C@@H]1OCCCCCC(=O)OC` (relative stereo) [triple (R,S)OH,Me H,H (7-oxa-9-oxo)]: under setting [2], the response vs control in vivo at 5 mg/kg stood at 82% and the inhibition in vivo at 5 mg/kg was determined as 18%.

Regarding `CCCCC(C)(C)C(=O)C#C[C@H]1CCC(=O)[C@@H]1OCCCCCC(=O)OC` (relative stereo) [triple oxo Me,Me (7-oxa-9-oxo)], under setting [2], the response vs control in vivo at 5 mg/kg is 16% and the inhibition in vivo at 5 mg/kg was determined as 84%.

For the compound `CCCCCC(C)(O)/C=C\[C@H]1CCC(=O)[C@@H]1OCCCCCC(=O)OC` (relative stereo) [cis (R,S)OH,Me H,H (7-oxa-9-oxo)], under setting [2], the response vs control in vivo at 5 mg/kg was determined as 71% and the inhibition in vivo at 5 mg/kg was 29%.

For the compound `CCCCC(C)(C)C(O)C#C[C@H]1CC[C@H](O)[C@@H]1OCCCCCC(=O)OC` (relative stereo), under setting [1], the response vs control in vivo at 5 mg/kg came to 83% and the inhibition in vivo at 5 mg/kg was 17%.

Take `CCCCCC(=O)C#C[C@H]1CCC(=O)[C@@H]1OCCCCCC(=O)OC` (relative stereo) [triple oxo H,H (7-oxa-9-oxo), methyl-9,15-dioxo-7-oxa-prost-13,14-ynoate]: the “cytoprotective activity (in words)” value was “the same”. Also, under setting [2], the response vs control in vivo at 5 mg/kg was determined as 4% and the inhibition in vivo at 5 mg/kg amounted to 96%.

As to `CCCCCC(O)C#C[C@H]1CCC(=O)[C@@H]1OCCCCCC(=O)OC` (relative stereo) [triple (R,S)OH H,H (7-oxa-9-oxo), methyl 15-hydroxy-7-oxa-9-oxo-prost-13,14-ynoate], under setting [2], the response vs control in vivo at 5 mg/kg was 31% and the inhibition in vivo at 5 mg/kg came out at 69%.

As to `CCCCCC(=O)CC[C@H]1CCC(=O)[C@@H]1OCCCCCC(=O)OC` (relative stereo) [single oxo H,H (7-oxa-9-oxo)], under setting [2], the response vs control in vivo at 5 mg/kg is 128% and the inhibition in vivo at 5 mg/kg was -28%.

As to `CCCCCC(C)(O)CC[C@H]1CCC(=O)[C@@H]1OCCCCCC(=O)OC` (relative stereo) [single (R,S)OH,Me H,H (7-oxa-9-oxo)], under setting [2], the response vs control in vivo at 5 mg/kg is 67% and the inhibition in vivo at 5 mg/kg amounted to 33%.

Take `CCCCCC(=O)/C=C\[C@H]1CCC(=O)[C@@H]1OCCCCCC(=O)OC` (relative stereo) [cis oxo H,H (7-oxa-9-oxo), methyl-9,15-dioxo-7-oxa-cis-prost-13,14-enoate]: under setting [2], the response vs control in vivo at 5 mg/kg came out at 113% and the inhibition in vivo at 5 mg/kg was -13%.

With `CCCCC[C@H](O)C#CC1CCC(=O)C1OCCCCCC(=O)OC` (stereo partly drawn) [(18), methyl-(S)-15-hydroxy-7-oxa-9-oxo-prost-13,14-ynoate], the “cytoprotective activity (in words)” value is reported as “high cytoprotective activity” and the “% Protection” value was determined as 96%.

Turning to `CCCCCC(=O)C#C[C@H]1CC[C@H](O)[C@@H]1OCCCCCC(=O)OC` (relative stereo) [triple oxo H,H (7-oxa-9-alpha-hydroxy), methyl 9-alpha-hydroxy-7-oxa-15-oxo-prost-13,14-ynoate], under setting [1], the response vs control in vivo at 5 mg/kg was found to be 20% and the inhibition in vivo at 5 mg/kg was 80%.

As for `CCCCCC(O)/C=C\[C@H]1CCC(=O)[C@@H]1OCCCCCC(=O)OC` (relative stereo) [cis (R,S)OH H,H (7-oxa-9-oxo), methyl-15-hydroxy-7-oxa-9-oxo-cis-prost-13-14-enoate], under setting [2], the response vs control in vivo at 5 mg/kg amounted to 31% and the inhibition in vivo at 5 mg/kg turned out to be 69%.

For the compound `CCCCCC(C)(O)/C=C/[C@H]1CCC(=O)[C@@H]1OCCCCCC(=O)OC` (relative stereo) [trans (R,S)OH,Me H,H (7-oxa-9-oxo)], under setting [2], the response vs control in vivo at 5 mg/kg came out at 54% and the inhibition in vivo at 5 mg/kg came out at 46%.
